Patent US20220125778A1 (priority 2019, published 2022)
Like-named read-outs stand apart in the source and are kept apart here.

Target: β-glucuronidase activity in live E. coli (4MUG to 4MU conversion) (Escherichia coli, UniProt P05804)
Test: Cell-based E. coli assay with 4MUG substrate, with and without esterase pre-treatment of prodrug
Conditions: for IC50: live E. coli
Method: For esterase activation, the prodrug is treated with 5 mg/mL esterase for 30 mins at 37° C. to cleave the ester bonds yielding the glucuronide moiety. Following treatment, an inhibitor titration ranging from 10 uM to 10 pM is mixed and preincubated with live E. coli for 5 mins or 4 hours at 37° C. in a microplate with assay buffer (HEPES pH 7, NaCl). Chemically synthesized SY65-G is included as a positive control. Following preincubation, 4-methylumbelliferyl glucuronide (4MUG) is added at a final concentration of 100 uM to the cell and inhibitor mixture. The conversion of 4MUG to 4MU is detected via fluorescence (Ex./Em.: 360/460). […] The untreated prodrug is not active.

[1] = 5 min preincubation, no esterase treatment, read-out: Potency, pre-incubation time 5 min
[2] = 5 min preincubation, treated with 5 mg/mL esterase for 30 mins at 37° C., read-out: Potency, pre-incubation time 5 min, + Esterase
[3] = 4 hour preincubation, no esterase treatment, read-out: Potency, pre-incubation time 4 hour
[4] = 4 hour preincubation, treated with 5 mg/mL esterase for 30 mins at 37° C., read-out: Potency, pre-incubation time 4 hour, + Esterase

Chain of β-glucuronidase activity in live E. coli (4MUG to 4MU conversion) (P05804 whole entry): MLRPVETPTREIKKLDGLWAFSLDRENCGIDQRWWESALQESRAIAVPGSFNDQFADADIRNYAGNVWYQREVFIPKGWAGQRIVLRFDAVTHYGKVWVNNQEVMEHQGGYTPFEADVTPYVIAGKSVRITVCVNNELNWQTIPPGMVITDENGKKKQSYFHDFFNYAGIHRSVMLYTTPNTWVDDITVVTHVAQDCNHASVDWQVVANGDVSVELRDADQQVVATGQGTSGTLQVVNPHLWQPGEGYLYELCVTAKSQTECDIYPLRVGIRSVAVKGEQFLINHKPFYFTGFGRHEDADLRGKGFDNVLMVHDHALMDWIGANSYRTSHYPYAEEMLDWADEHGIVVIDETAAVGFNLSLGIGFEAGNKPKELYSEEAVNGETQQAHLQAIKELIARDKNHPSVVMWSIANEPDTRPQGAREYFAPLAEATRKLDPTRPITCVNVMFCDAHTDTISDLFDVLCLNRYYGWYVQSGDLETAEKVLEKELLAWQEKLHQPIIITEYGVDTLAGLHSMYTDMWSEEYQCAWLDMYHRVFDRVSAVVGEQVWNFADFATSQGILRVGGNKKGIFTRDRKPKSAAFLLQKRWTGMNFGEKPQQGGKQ

Compound | IC50 [1] | IC50 [2] | IC50 [3] | IC50 [4] | Potency of esterase treated prodrug versus glucuronide positive control (esterase treated) | Activity of untreated prodrug in cell-based assay (without esterase treatment)
Cc1cc(C)c2[nH]c(=O)c(CN(CCO[C@@H]3O[C@H](C(=O)O)[C@@H](O)[C@H](O)[C@H]3O)C(=O)Nc3ccccc3C(C)C)cc2c1 [SY65-G, (2S,3S,4S,5R,6R)-6-[2-[(6,8-dimethyl-2-oxo-1H-quinolin-3-yl)methyl-[(2-isopropylphenyl)carbamoyl]amino]ethoxy]-3,4,5-trihydroxy-tetrahydropyran-2-carboxylic acid] | 125 nM | 93 nM | 0.53 nM | 0.57 nM | – | –
COC(=O)[C@H]1O[C@@H](OCCN(Cc2cc3cc(C)cc(C)c3[nH]c2=O)C(=O)Nc2ccccc2C(C)C)[C@H](OC(C)=O)[C@@H](OC(C)=O)[C@@H]1OC(C)=O [SY65-G-Ac, Methyl (2S,3S,4S,5R,6R)-3,4,5-triacetoxy-6-[2-[(6,8-dimethyl-2-oxo-1H-quinolin-3-yl)methyl-[(2-isopropylphenyl)carbamoyl]amino]ethoxy]tetrahydropyran-2-carboxylate] | > 10000 nM | 156 nM | > 10000 nM | 0.52 nM | just as potent as the glucuronide positive control | not active
